Measured values as given in article PMC7822819, “Discovery of a new class of integrin antibodies for fibrosis” (Scientific Reports, 2021).
Like-named read-outs stand apart in the source and are kept apart here.

What was measured:
human αvβ3 = target: T1, human αvβ3 (Homo sapiens, UniProt P05106+P06756); assay: AlphaLISA integrin-ligand binding assay; type: biochemical
T1 construct: hαV 1 992; hβ3 1 718; made in house; host or cells: Expi293
Method: (§1) In the AlphaLISA integrin assays, we used a HEPES based buffer (25 mM HEPES pH 7.4, 137 mM NaCl, 1 mM MgCl2, 1 mM MnCl2, 2 mM CaCl2, 2.7 mM KCl, and 0.05% Tween-20). Optimal assay conditions were determined with a titration of the reagents for signal noise ratio (S/N), linear range, etc. For the respective integrins, we used the final concentrations described in Supplemental Table S3. Briefly, the testing antibody (8 μL) was added as a 4x (of Final testing concentration) solution in the HEPES buffer described previously into a 384w AlphaPlate (Perkin Elmer #6005350). Then the integrin and ligand were added sequentially as 8x (4 μL each). Plates were sealed and incubated at room temperature for 2 h. Then 4 × acceptor bead solution (8 μL) was added, and the plates were resealed and incubated at RT for 1 h. Finally, 4 × (8 μL) donor beads solution was added in a darkened room and incubated for 45 min at room temperature. Plates were read on the Envision (Perkin Elmer) in AlphaScreen mode within 3 h of donor bead addition.
(§2) Supplemental Table S3. integrin AlphaLIS A assay reagents and conditions Human A l phal i sa Inte gri n A ssays: Fi nal Condi ti ons […]
(§3) ( batch de pe nde nt) anti body A l phaLi sa A cce ptor havb1 1. 4 nM 1. 0 nMα - Fi brone cti n human Fi brone cti n n/a A cce ptor be ads/ Pe rki n 10. 0 ug/ m 10. 0 ug/ m […]
(§4) havb3 3. 0 nM 10. 0 nMhuman V i trone cti n- GST α - GS T A cce p t o r ug/ m Stre ptavi di n Donor ug/ m tagge d n/a be ads/ Pe rki n 15. 0 l be ads/ Pe rki n El me r 15. 0 l […]
(§5) havb6 0. 1 nM 0. 5 nM 3. […]
(§6) Mouse A l phal i sa Inte gri n A ssays: Fi nal Condi ti ons […]
(§7) m aV b 1 4. 3 nM 1. 0 nMmouse f i brone cti n A bcam α - Fi brone cti n ( Rabbi t […]
(§8) 0 nM 5. […] 0nM be ads/ Pe rki n El me r […]
(§9) m aV b 6 1. 4 nM 2. 5 nMmouse LA P- 6Hi s α - 6x HI S / P e rk i n El m e r ug/ m ug/ m m aV b 8 1. 0 nM 2. 5 nMChe mpartne rn/a( A L 128) 15 l 15 l

human α5β1 = target: T2, human α5β1 (Homo sapiens, UniProt P05556+P08648); assay: AlphaLISA integrin-ligand binding assay; type: biochemical
T2 construct: hα5 1 995; hβ1 1 728; made in house; host or cells: Expi293
T2 sequence (P08648 42-995): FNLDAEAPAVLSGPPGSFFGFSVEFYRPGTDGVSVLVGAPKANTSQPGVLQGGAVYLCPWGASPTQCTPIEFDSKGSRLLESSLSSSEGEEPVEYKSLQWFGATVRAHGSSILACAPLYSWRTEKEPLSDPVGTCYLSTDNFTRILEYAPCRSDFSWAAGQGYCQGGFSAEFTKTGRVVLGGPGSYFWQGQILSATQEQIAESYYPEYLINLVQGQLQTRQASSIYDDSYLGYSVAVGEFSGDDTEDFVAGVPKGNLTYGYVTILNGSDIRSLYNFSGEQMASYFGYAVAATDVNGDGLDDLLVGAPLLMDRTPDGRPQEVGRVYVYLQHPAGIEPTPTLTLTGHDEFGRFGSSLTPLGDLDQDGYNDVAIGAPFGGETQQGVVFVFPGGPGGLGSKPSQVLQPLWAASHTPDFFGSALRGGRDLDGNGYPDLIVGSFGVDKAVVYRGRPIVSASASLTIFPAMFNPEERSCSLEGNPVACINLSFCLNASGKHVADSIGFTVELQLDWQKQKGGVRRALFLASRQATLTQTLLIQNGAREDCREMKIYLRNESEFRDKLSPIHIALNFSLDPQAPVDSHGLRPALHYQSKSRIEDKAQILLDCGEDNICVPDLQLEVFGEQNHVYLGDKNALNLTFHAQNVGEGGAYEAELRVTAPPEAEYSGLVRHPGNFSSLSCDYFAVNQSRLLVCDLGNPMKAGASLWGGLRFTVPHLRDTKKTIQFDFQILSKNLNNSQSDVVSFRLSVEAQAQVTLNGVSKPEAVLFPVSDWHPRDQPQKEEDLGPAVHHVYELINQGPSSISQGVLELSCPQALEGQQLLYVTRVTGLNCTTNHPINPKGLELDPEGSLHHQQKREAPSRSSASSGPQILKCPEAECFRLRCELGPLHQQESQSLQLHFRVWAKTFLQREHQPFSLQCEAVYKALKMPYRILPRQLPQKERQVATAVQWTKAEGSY
T2 sequence (P05556 21-728): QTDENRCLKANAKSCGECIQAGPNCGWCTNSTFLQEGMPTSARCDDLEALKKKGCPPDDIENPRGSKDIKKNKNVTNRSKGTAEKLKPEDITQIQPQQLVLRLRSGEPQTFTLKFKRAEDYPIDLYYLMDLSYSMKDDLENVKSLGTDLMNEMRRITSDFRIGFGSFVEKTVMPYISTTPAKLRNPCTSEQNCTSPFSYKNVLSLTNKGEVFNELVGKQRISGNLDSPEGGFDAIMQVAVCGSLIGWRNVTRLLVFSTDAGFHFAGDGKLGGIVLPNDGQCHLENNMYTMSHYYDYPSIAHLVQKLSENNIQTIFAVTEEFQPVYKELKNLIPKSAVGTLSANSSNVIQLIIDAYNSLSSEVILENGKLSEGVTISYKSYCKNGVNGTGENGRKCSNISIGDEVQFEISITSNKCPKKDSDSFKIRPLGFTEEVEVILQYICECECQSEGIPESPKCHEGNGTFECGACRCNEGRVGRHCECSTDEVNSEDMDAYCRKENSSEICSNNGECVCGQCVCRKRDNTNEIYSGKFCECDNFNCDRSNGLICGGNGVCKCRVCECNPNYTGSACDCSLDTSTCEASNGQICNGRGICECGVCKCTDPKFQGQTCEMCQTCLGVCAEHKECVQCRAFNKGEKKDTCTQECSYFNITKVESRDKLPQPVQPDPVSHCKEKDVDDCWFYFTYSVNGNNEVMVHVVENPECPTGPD
Method: as §1, §2, §3, §4, §5, §6, §7, §8, §9

mouse αvβ5 = target: T3, mouse αvβ5 (Mus musculus, UniProt O70309+P43406); assay: AlphaLISA integrin-ligand binding assay; type: biochemical; conditions: Fig. 4B; read-out: IC50 Mouse integrin AlphaLISA assays: mαvβ5
T3 construct: mαV 1 988; m β5 1 719; made in house; host or cells: Expi293
Method: as §1, §2, §3, §4, §5, §6, §7, §8, §9

mouse α5β1 = target: T4, mouse α5β1 (Mus musculus, UniProt P09055+P11688); assay: AlphaLISA integrin-ligand binding assay; type: biochemical; conditions: Fig. 4B; read-out: IC50 Mouse integrin AlphaLISA assays: mα5β1
T4 construct: mα5 1 999; m β1 1 728; made in house; host or cells: Expi293
T4 sequence (P11688 45-999): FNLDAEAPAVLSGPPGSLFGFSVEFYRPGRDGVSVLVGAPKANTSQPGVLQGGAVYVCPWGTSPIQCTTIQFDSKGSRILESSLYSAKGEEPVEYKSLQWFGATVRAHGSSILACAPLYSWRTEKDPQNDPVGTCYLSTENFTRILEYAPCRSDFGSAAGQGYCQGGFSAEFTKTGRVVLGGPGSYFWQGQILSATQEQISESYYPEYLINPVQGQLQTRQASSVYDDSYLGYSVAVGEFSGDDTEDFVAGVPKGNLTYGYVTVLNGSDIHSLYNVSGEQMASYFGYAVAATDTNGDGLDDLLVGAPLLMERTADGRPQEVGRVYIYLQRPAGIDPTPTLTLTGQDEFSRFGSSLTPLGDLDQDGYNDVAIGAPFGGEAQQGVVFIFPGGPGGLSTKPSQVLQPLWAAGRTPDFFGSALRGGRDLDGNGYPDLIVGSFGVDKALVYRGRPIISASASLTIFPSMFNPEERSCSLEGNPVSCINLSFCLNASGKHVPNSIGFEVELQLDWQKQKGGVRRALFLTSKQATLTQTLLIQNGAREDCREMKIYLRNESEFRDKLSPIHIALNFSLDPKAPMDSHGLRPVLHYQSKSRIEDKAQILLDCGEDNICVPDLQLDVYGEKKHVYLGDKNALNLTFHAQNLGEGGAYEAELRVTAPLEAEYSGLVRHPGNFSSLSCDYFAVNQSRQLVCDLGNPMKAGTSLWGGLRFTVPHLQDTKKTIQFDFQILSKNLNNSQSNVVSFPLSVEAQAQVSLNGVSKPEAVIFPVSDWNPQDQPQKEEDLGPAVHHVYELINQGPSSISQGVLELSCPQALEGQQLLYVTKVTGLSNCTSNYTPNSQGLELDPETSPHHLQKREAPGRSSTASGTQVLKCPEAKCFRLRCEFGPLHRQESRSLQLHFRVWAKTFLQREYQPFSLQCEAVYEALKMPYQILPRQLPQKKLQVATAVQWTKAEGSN
T4 sequence (P09055 21-728): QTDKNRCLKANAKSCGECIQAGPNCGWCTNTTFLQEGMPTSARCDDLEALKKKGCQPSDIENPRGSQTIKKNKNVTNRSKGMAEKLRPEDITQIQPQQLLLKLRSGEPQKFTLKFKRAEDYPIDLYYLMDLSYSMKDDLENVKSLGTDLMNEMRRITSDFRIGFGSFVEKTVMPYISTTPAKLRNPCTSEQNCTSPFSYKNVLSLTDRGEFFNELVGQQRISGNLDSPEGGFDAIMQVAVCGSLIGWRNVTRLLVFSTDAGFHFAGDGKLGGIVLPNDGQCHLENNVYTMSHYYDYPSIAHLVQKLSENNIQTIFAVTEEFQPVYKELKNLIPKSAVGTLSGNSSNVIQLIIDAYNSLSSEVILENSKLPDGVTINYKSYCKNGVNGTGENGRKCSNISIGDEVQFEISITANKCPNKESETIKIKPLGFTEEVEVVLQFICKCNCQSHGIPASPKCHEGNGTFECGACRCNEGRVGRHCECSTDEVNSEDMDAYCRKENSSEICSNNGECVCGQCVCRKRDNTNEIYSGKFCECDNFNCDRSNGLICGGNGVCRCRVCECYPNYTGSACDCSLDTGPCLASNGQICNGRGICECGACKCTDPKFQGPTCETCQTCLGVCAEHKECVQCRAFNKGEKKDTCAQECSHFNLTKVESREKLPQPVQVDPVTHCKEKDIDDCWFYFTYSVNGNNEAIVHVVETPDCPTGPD
Method: as §1, §2, §3, §4, §5, §6, §7, §8, §9

[1] = system: normal human lung fibroblasts; assay: TGFβ-induced αSMA high-content imaging; type: cell-based; conditions: 10 μM, 30 min pre-treatment, TGFβ 5 ng/mL, 48 h
Method: Normal human lung fibroblasts (Lonza) and Primary Human IPF Lung Parenchymal Fibroblasts (Donor2) (BioIVT, #PCR-70-0214) were incubated at 37 °C and 5% CO2. To induce fibrotic response in primary cells, a final concentration of 5 ng/ml of recombinant human TGFβ1 (BioLegend, #580702) was added to the culture media and treated for 24 ~ 48 h. Anti-TGFβ neutralizing antibody (1D11) and the isotype control mouse IgG1 were from BioXcell. SB-525334 and bleomycin were from Sigma. MK-0429 was synthesized by Merck & Co., Inc., Kenilworth, NJ, USA. CHOK1-integrin stable lines were cultured in DMEM/F12, Glutamax (Gibco #10565018), 10% FBS (Gibco 310091148), 1 × Pen/Strep (Gibco 315140-148), and 6 ug/mL Puromycin (Gibco #A1113803).
Primary cells (passage 3–5) were grown on Cell carrier Ultra, col1 coated 96-well plates (Perkin Elmer, #6055700) at a density of 25,000 cells/well. Once the cells adhere, they were starved in serum free media for 24 h followed by addition of treatments i.e. 5 ng/mL TGFβ (Biolegend #580702) ± inhibitors. Cells were pre-treated with inhibitors for 30 min prior to the addition of TGFβ stimulation. 48hours post treatment, the cells were fixed in 4% methanol free paraformaldehyde (ThermoFisher Scientific #28908) for 20 min at room temperature and incubated with anti-alpha smooth muscle Actin antibody (Abcam #ab7817) at 1:4000 overnight at 4 °C. […]

CHOK1 parental cells = assay: Cell adhesion assay (Epic) on fibronectin; type: cell-based, hamster; conditions: in words

T1 sequence (P06756 31-992): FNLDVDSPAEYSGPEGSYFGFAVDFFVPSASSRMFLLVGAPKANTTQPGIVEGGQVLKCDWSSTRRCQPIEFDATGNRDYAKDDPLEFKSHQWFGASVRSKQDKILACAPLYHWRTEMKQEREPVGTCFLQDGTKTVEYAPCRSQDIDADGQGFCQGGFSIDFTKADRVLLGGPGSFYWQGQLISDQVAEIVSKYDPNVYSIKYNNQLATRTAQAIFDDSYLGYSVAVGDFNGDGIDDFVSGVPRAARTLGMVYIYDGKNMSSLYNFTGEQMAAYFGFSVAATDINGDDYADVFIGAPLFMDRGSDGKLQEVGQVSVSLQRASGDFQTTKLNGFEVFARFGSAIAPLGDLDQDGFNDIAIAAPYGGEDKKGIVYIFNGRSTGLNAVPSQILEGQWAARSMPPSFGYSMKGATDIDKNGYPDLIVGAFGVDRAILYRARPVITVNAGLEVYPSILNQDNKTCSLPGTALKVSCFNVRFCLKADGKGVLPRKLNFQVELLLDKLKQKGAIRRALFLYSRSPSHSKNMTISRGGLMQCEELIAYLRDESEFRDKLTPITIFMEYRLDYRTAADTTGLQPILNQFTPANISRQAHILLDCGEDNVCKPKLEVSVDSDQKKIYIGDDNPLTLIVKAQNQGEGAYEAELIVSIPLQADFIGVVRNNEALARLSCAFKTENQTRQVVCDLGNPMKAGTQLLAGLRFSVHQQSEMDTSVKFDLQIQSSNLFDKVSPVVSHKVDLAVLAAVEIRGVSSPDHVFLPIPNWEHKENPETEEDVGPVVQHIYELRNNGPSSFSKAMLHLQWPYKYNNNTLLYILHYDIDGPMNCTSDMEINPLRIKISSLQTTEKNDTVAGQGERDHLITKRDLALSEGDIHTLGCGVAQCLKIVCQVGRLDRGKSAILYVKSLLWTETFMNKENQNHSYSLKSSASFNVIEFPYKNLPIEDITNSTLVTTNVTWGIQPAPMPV
T1 sequence (P05106 27-718): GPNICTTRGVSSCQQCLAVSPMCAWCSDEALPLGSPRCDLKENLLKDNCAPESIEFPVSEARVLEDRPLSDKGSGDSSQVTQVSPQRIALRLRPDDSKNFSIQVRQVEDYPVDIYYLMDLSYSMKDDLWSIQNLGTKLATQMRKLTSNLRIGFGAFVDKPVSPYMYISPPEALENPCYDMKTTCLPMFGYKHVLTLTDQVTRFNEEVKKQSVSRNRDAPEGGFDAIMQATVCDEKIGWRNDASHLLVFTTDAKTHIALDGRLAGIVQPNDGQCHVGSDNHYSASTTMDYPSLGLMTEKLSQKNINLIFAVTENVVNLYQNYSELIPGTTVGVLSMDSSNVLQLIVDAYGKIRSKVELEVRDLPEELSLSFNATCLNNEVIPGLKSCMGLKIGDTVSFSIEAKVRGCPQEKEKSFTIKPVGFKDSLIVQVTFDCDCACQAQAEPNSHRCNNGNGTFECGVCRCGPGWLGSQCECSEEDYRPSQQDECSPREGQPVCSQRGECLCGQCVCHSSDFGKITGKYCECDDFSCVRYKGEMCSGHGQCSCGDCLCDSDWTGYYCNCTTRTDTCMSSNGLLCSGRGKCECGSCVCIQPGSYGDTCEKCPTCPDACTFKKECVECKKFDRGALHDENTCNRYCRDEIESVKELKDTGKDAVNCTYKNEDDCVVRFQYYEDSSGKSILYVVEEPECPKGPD

COc1ccc(C(CC(=O)O)N2CCN(CCCc3ccc4c(n3)NCCC4)C2=O)cn1 (centres unmarked) [MK-0429]
IC50 (human αvβ3; Fig. 3D, assay optimisation, read-out: IC50 human αvβ3 AlphaLISA): 0.15 nM
IC50 (human αvβ3; Fig. 4B, read-out: IC50 Human integrin AlphaLISA assays: hαvβ3): 1.6 nM
IC50 (human α5β1; Fig. 3D, assay optimisation, read-out: IC50 human α5β1 AlphaLISA): 17.3 nM
IC50 (human α5β1; Fig. 4B, read-out: IC50 Human integrin AlphaLISA assays: hα5β1): 26.5 nM
IC50 (mouse αvβ5): 48.3 nM
IC50 (mouse α5β1): 50.3 nM
αSMA intensity and percentage of stimulated cells following TGFβ treatment [1]: significantly reduced
Effect on cell adhesion, CHOK1 parental cells (CHOK1 parental cells): little inhibitory activity
